Reference: patent publication US11236087B2, “Highly active pyrazolo-piperidine substituted indole-2-carboxamides active against the hepatitis B virus (HBV)” (AiCuris GmbH & Co. KG, priority 2017, dated 2022)
pEC50, pIC50: −log10 of the molar value.

Tests used:
HBV = test: Determination of HBV DNA from the supernatants of HepAD38 cells (anti-HBV activity); type: cell-based, hepatitis B virus; conditions: Hepatitis B virus, 144 h; HBV DNA in HepAD38 supernatant, day 6, qPCR; read-out: Cell Activity (EC50)
Procedure, shortened: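 HepAD38 cells, tetracycline withdrawn to induce HBV, treated with serial half-log compound dilutions; on day 6 HBV DNA purified from filtered supernatant and quantified by real-time PCR against HBV plasmid standards; EC50 from relative copy numbers by non-linear regression, three experiments in triplicate.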

HBV core protein = target: T1, HBV core protein (UniProt P03146); test: Biochemical capsid assembly assay (fluorescence quenching); parameters: species or system hepatitis B virus; conditions: read-out: Assembly Activity (IC50); BODIPY-FL labelled core protein, 300 μM NaCl, read 6 min after start
T1 construct: fused on or other part: BODIPY-FL maleimide label on the C-terminal Cys150
T1 sequence (P03146 whole entry, looked up, the tested form may be a part): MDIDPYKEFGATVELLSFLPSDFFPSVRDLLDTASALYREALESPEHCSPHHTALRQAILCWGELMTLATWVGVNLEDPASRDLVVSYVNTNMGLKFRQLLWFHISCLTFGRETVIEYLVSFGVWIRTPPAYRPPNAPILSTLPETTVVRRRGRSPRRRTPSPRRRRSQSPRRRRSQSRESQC
Procedure, shortened: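 Purified E. coli-expressed HBV core protein (aa 1-149 plus Cys150), BODIPY-FL maleimide-labelled, at 1.0-2.0 μM in 50 mM HEPES pH 7.5 with 0.5% DMSO was used. Compounds were tested at 8 concentrations (0.5-log dilutions from 100, 31.6 or 10 μM). Assembly was started with NaCl ([…]), and fluorescence quenching was read after 6 min (ex 477/em 525 nm). EC50 was determined by non-linear regression.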

[1] = Cell viability assay (AlamarBlue) in HepAD38 cells; conditions: human

Row | SMILES | pEC50 (HBV) | pIC50 (HBV core protein) | CC50 at 6 days [1]
1 | CN(Cc1cn(C)nn1)C(=O)c1n[nH]c2c1CN(C(=O)c1cc3ccccc3[nH]1)CC2 [Example 316, 5-(1H-indole-2-carbonyl)-N-methyl-N-[(1-methyl-1H-1,2,3-triazol-4-yl)methyl]-1H,4H,5H,6H,7H-pyrazolo[4,3-c]pyridine-3-carboxamide] | 4.60 to 6.00 | > 5.30 | > 10 µM
2 | C=Cc1scnc1-c1n[nH]c2c1CN(C(=O)c1cc3ccccc3[nH]1)CC2 [Example 317, 2-[3-(5-ethenyl-1,3-thiazol-4-yl)-1H,4H,5H,6H,7H-pyrazolo[4,3-c]pyridine-5-carbonyl]-1H-indole] | > 6.00 | > 5.30 | > 10 µM
3 | CN(C(=O)c1n[nH]c2c1CN(C(=O)c1cc3ccccc3[nH]1)CC2)C1(COC(F)F)CC1 [Example 318, N-{1-[(difluoromethoxy)methyl]cyclopropyl}-5-(1H-indole-2-carbonyl)-N-methyl-1H,4H,5H,6H,7H-pyrazolo[4,3-c]pyridine-3-carboxamide] | > 6.00 | > 5.30 | > 10 µM
4 | CN(C(=O)c1[nH]nc2c1CN(C(=O)c1cc3c(F)cccc3[nH]1)CC2)C1CC1 [Example 322, N-cyclopropyl-5-(4-fluoro-1H-indole-2-carbonyl)-N-methyl-2H,4H,5H,6H,7H-pyrazolo[4,3-c]pyridine-3-carboxamide] | > 6.00 | > 5.30 | > 10 µM
5 | CN(C(=O)c1[nH]nc2c1CN(C(=O)c1cc3c(F)cc(F)cc3[nH]1)CC2)C1CC1 [Example 323, N-cyclopropyl-5-(4,6-difluoro-1H-indole-2-carbonyl)-N-methyl-2H,4H,5H,6H,7H-pyrazolo[4,3-c]pyridine-3-carboxamide] | > 6.00 | > 5.30 | > 10 µM
6 | CN(C(=O)c1[nH]nc2c1CN(C(=O)c1cc3c(Cl)c(F)ccc3[nH]1)CC2)C1CC1 [Example 324, 5-(4-chloro-5-fluoro-1H-indole-2-carbonyl)-N-cyclopropyl-N-methyl-2H,4H,5H,6H,7H-pyrazolo[4,3-c]pyridine-3-carboxamide] | > 6.00 | > 5.30 | > 10 µM
7 | CN(C(=O)c1[nH]nc2c1CN(C(=O)c1cc3ccc(Cl)cc3[nH]1)CC2)C1CC1 [Example 325, 5-(6-chloro-1H-indole-2-carbonyl)-N-cyclopropyl-N-methyl-2H,4H,5H,6H,7H-pyrazolo[4,3-c]pyridine-3-carboxamide] | > 6.00 | > 5.30 | > 10 µM
8 | CN(C(=O)c1[nH]nc2c1CN(C(=O)c1cc3c(Cl)cccc3[nH]1)CC2)C1CC1 [Example 326, 5-(4-chloro-1H-indole-2-carbonyl)-N-cyclopropyl-N-methyl-2H,4H,5H,6H,7H-pyrazolo[4,3-c]pyridine-3-carboxamide] | > 6.00 | > 5.30 | > 10 µM
9 | Cc1cc(F)cc2[nH]c(C(=O)N3CCc4n[nH]c(C(=O)N(C)C5CC5)c4C3)cc12 [Example 327, N-cyclopropyl-5-(6-fluoro-4-methyl-1H-indole-2-carbonyl)-N-methyl-2H,4H,5H,6H,7H-pyrazolo[4,3-c]pyridine-3-carboxamide] | > 6.00 | > 5.30 | > 10 µM
10 | CCc1cccc2[nH]c(C(=O)N3CCc4n[nH]c(C(=O)N(C)C5CC5)c4C3)cc12 [Example 328, N-cyclopropyl-5-(4-ethyl-1H-indole-2-carbonyl)-N-methyl-2H,4H,5H,6H,7H-pyrazolo[4,3-c]pyridine-3-carboxamide] | > 6.00 | > 5.30 | > 10 µM
11 | CN(C(=O)c1[nH]nc2c1CN(C(=O)c1cc3cc(F)c(Cl)cc3[nH]1)CC2)C1CC1 [Example 329, 5-(6-chloro-5-fluoro-1H-indole-2-carbonyl)-N-cyclopropyl-N-methyl-2H,4H,5H,6H,7H-pyrazolo[4,3-c]pyridine-3-carboxamide] | > 6.00 | > 5.30 | > 10 µM
12 | CCc1cc(F)cc2[nH]c(C(=O)N3CCc4n[nH]c(C(=O)N(C)C5CC5)c4C3)cc12 [Example 330, N-cyclopropyl-5-(4-ethyl-6-fluoro-1H-indole-2-carbonyl)-N-methyl-2H,4H,5H,6H,7H-pyrazolo[4,3-c]pyridine-3-carboxamide] | > 6.00 | > 5.30 | > 10 µM
13 | CCc1cccc2[nH]c(C(=O)N3CCc4[nH]nc(C56CC(C5)C6)c4C3)cc12 [Example 331, 2-(3-{bicyclo[1.1.1]pentan-1-yl}-1H,4H,5H,6H,7H-pyrazolo[4,3-c]pyridine-5-carbonyl)-4-ethyl-1H-indole] | > 6.00 | > 5.30 | > 10 µM
14 | O=C(c1cc2c(F)c(F)ccc2[nH]1)N1CCc2[nH]nc(C34CC(C3)C4)c2C1 [Example 332, 2-(3-{bicyclo[1.1.1]pentan-1-yl}-1H,4H,5H,6H,7H-pyrazolo[4,3-c]pyridine-5-carbonyl)-4,5-difluoro-1H-indole] | > 6.00 | > 5.30 | > 10 µM
15 | O=C(c1cc2c(F)cc(F)cc2[nH]1)N1CCc2[nH]nc(C34CC(C3)C4)c2C1 [Example 333, 2-(3-{bicyclo[1.1.1]pentan-1-yl}-1H,4H,5H,6H,7H-pyrazolo[4,3-c]pyridine-5-carbonyl)-4,6-difluoro-1H-indole] | > 6.00 | > 5.30 | > 10 µM
16 | CCc1cc(F)cc2[nH]c(C(=O)N3CCc4[nH]nc(C56CC(C5)C6)c4C3)cc12 [Example 334, 2-(3-{bicyclo[1.1.1]pentan-1-yl}-1H,4H,5H,6H,7H-pyrazolo[4,3-c]pyridine-5-carbonyl)-4-ethyl-6-fluoro-1H-indole] | > 6.00 | > 5.30 | > 10 µM
17 | Cc1cc(F)cc2[nH]c(C(=O)N3CCc4[nH]nc(C56CC(C5)C6)c4C3)cc12 [Example 336, 2-(3-{bicyclo[1.1.1]pentan-1-yl}-1H,4H,5H,6H,7H-pyrazolo[4,3-c]pyridine-5-carbonyl)-6-fluoro-4-methyl-1H-indole] | > 6.00 | > 5.30 | > 10 µM
18 | CCc1cccc2[nH]c(C(=O)N3CCc4[nH]nc(C5CCCO5)c4C3)cc12 (stereo not drawn) [Example 337, 4-ethyl-2-[3-(oxolan-2-yl)-1H,4H,5H,6H,7H-pyrazolo[4,3-c]pyridine-5-carbonyl]-1H-indole] | > 6.00 | > 5.30 | > 10 µM
19 | O=C(c1cc2c(F)c(F)ccc2[nH]1)N1CCc2[nH]nc(C3CCCO3)c2C1 (stereo not drawn) [Example 338, 4,5-difluoro-2-[3-(oxolan-2-yl)-1H,4H,5H,6H,7H-pyrazolo[4,3-c]pyridine-5-carbonyl]-1H-indole] | > 6.00 | > 5.30 | > 10 µM
20 | O=C(c1cc2c(F)cc(F)cc2[nH]1)N1CCc2[nH]nc(C3CCCO3)c2C1 (stereo not drawn) [Example 339, 4,6-difluoro-2-[3-(oxolan-2-yl)-1H,4H,5H,6H,7H-pyrazolo[4,3-c]pyridine-5-carbonyl]-1H-indole] | > 6.00 | > 5.30 | > 10 µM
21 | CCc1cc(F)cc2[nH]c(C(=O)N3CCc4[nH]nc(C5CCCO5)c4C3)cc12 (stereo not drawn) [Example 340, 4-ethyl-6-fluoro-2-[3-(oxolan-2-yl)-1H,4H,5H,6H,7H-pyrazolo[4,3-c]pyridine-5-carbonyl]-1H-indole] | > 6.00 | > 5.30 | > 10 µM
22 | O=C(c1cc2c(Cl)cc(F)cc2[nH]1)N1CCc2[nH]nc(C3CCCO3)c2C1 (stereo not drawn) [Example 341, 4-chloro-6-fluoro-2-[3-(oxolan-2-yl)-1H,4H,5H,6H,7H-pyrazolo[4,3-c]pyridine-5-carbonyl]-1H-indole] | > 6.00 | > 5.30 | > 10 µM
23 | Cc1cc(F)cc2[nH]c(C(=O)N3CCc4[nH]nc(C5CCCO5)c4C3)cc12 (stereo not drawn) [Example 342, 6-fluoro-4-methyl-2-[3-(oxolan-2-yl)-1H,4H,5H,6H,7H-pyrazolo[4,3-c]pyridine-5-carbonyl]-1H-indole] | > 6.00 | > 5.30 | > 10 µM
24 | O=C(c1cc2ccccc2[nH]1)N1CCc2[nH]nc(C34CC(C3)C4)c2C1 [Example 343, 2-(3-{bicyclo[1.1.1]pentan-1-yl}-1H,4H,5H,6H,7H-pyrazolo[4,3-c]pyridine-5-carbonyl)-1H-indole] | > 6.00 | > 5.30 | > 10 µM
25 | O=C(c1cc2ccccc2[nH]1)N1CCc2[nH]nc(C3CCCO3)c2C1 (stereo not drawn) [Example 344, 2-[3-(oxolan-2-yl)-1H,4H,5H,6H,7H-pyrazolo[4,3-c]pyridine-5-carbonyl]-1H-indole] | > 6.00 | > 5.30 | > 10 µM
26 | CN(C(=O)c1n[nH]c2c1CN(C(=O)c1cc3ccccc3[nH]1)CC2)C1(COCC(F)(F)F)CC1 [Example 359, 5-(1H-indole-2-carbonyl)-N-methyl-N-{1-[(2,2,2-trifluoroethoxy)methyl]cyclopropyl}-1H,4H,5H,6H,7H-pyrazolo[4,3-c]pyridine-3-carboxamide] | > 6.00 | > 5.30 | > 10 µM
